# Assays:
# FKBP12 = conditions: value indicates binding interaction with FKBP12; read-out: IC50 (nM) on relevant targets: mTOR; cited from earlier work
# [1] = system: mutant versus wild-type cell lines of the 44 cell line panel; assay: Anova analysis of cell panel IC50s against cancer gene changes; standardized mean difference (targetedness); conditions: BRAF oncogene targeting, Figure 5D
# [2] = molecular target: T1, panel of more than 300 wild-type and mutant kinases (313 kinase panel) (Homo sapiens, UniProt P42679); assay: Kinase profiling in a biochemical assay panel (mobility shift assays and ELISA), %-inhibition at 1 μM; selectivity entropy
# T1 sequence (P42679 1-507): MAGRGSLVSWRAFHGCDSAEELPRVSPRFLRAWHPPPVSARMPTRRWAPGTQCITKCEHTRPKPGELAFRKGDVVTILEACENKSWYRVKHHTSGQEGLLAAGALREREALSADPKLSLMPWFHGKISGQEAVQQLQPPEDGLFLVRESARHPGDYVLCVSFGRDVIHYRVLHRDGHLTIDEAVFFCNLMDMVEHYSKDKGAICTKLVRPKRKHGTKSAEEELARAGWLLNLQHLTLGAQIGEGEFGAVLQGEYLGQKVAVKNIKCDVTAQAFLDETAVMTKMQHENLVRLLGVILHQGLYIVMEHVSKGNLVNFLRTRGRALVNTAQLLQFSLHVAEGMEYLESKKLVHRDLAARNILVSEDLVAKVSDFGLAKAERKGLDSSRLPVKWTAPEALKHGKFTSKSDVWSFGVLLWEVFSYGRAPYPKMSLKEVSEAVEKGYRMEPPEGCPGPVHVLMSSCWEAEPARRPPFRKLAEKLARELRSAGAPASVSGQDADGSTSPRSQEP
structure (smiles),measurement,setting,value
CO[C@H]1C[C@@H]2CC[C@@H](C)[C@@](O)(O2)C(=O)C(=O)N2CCCC[C@H]2C(=O)O[C@H]([C@H](C)C[C@@H]2CC[C@@H](OC(=O)C(C)(CO)CO)[C@H](OC)C2)CC(=O)[C@H](C)/C=C(\C)[C@@H](O)[C@@H](OC)C(=O)[C@H](C)C[C@H](C)/C=C/C=C/C=C/1C [temsirolimus],IC50,FKBP12,~2 nM
CO[C@H]1C[C@@H]2CC[C@@H](C)[C@@](O)(O2)C(=O)C(=O)N2CCCC[C@H]2C(=O)O[C@H]([C@H](C)C[C@@H]2CC[C@@H](OCCO)[C@H](OC)C2)CC(=O)[C@H](C)/C=C(\C)[C@@H](O)[C@@H](OC)C(=O)[C@H](C)C[C@H](C)/C=C/C=C/C=C/1C [everolimus],IC50,FKBP12,~2 nM
CC(C)(C)c1nc(-c2cccc(NS(=O)(=O)c3c(F)cccc3F)c2F)c(-c2ccnc(N)n2)s1 [dabrafenib],targetedness (standardized logIC50 difference),[1],-4.96
Cc1ccc(Nc2nccc(N(C)c3ccc4c(C)n(C)nc4c3)n2)cc1S(N)(=O)=O [pazopanib],%-inhibition of CTK,"[2]; kinase CTK, compound at 1 μM",4.69%
CS(=O)(=O)CCNCc1ccc(-c2ccc3ncnc(Nc4ccc(OCc5cccc(F)c5)c(Cl)c4)c3c2)o1 [lapatinib],%-inhibition of CTK,"[2]; kinase CTK, compound at 1 μM",-0.699%
C#Cc1cccc(Nc2ncnc3cc(OCCOC)c(OCCOC)cc23)c1 [erlotinib],%-inhibition of CTK,[2]; 1 µM,22%
Cc1cn(-c2cc(NC(=O)c3ccc(C)c(Nc4nccc(-c5cccnc5)n4)c3)cc(C(F)(F)F)c2)cn1 [nilotinib],%-inhibition of CTK,[2]; 1 µM,7%
CCN(CC)CCNC(=O)c1c(C)[nH]c(/C=C2\C(=O)Nc3ccc(F)cc32)c1C [sunitinib],%-inhibition of CTK,"[2]; kinase CTK, compound at 1 μM",28%

# From article PMC3961306, “Comparison of the Cancer Gene Targeting and Biochemical Selectivities of All Targeted Kinase Inhibitors Approved for Clinical Use” (PLoS ONE, 2014)
